A short description of data set [1]: Compound cytotoxicity, XTT-based colorimetric assay. The format is cell-based. Conditions: human; uninfected MT2 cells, day 4, XTT-based colorimetric assay. The gist of the method: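 Run under the antiviral-assay protocol but without virus. Viability was read on day 4 and CC50 values were derived from the readout.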
On the technique in general: Tetrazolium assays rely on reduction of a dye to a coloured formazan, in cell work by metabolically active cells.

Data set [2] has as its system recombinant NL4-3 virus (nef section replaced with Renilla luciferase gene) in MT-2 cells. As to the kind of experiment: HIV cell culture assay (antiviral activity, luciferase readout). Conditions: Renilla, NL43. In kind it is cell-based. The gist of the method:
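MT-2 cells were infected for 4-5 days with 293T-derived NL4-3 Renilla-luciferase reporter virus in the presence of serial compound dilutions. Luciferase was read with EnduRen live-cell substrate. EC50 was fitted with the median effect equation.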

Bounds are passed on as bounds.

For the molecule `CCc1cnc(-c2cc(=O)n(-c3ccc(Cl)c4c(NS(C)(=O)=O)nn(C)c34)c([C@H](Cc3cc(F)cc(F)c3)NC(=O)Cn3nc(C(F)F)c4c3C(F)(F)[C@@H]3C[C@H]43)n2)nc1` (atropisomer, axis not shown; (aR)) [Example 12, N-((S)-1-((1′P)-1′-(4-chloro-1-methyl-3-(methylsulfonamido)-1H-indazol-7-yl)-5-ethyl-6′-oxo-1′,6′-dihydro-[2,4′-bipyrimidin]-2′-yl)-2-(3,5-difluorophenyl)ethyl)-2-((3bS,4aR)-3-(difluoromethyl)-5,5-difluoro-3b,4,4a,5-tetrahydro-1H-cyclopropa[3,4]cyclopenta[1,2-c]pyrazol-1-yl)acetamide], in data set [1], the CC50 at 4 days was more than 100 nM. In addition, the EC50 in data set [2] was 0.019 nM.
In data set [1], `Cn1nc(C(F)(F)F)cc1-c1cc(=O)n(-c2ccc(Cl)c3c(NS(C)(=O)=O)nn(C)c23)c([C@H](Cc2cc(F)cc(F)c2)NC(=O)Cn2nc(C(F)F)c3c2C(F)(F)[C@@H]2C[C@H]32)n1` (atropisomer, axis not shown; (P)) [Example 19, N-((S)-1-((1P)-1-(4-chloro-1-methyl-3-(methylsulfonamido)-1H-indazol-7-yl)-4-(1-methyl-3-(trifluoromethyl)-1H-pyrazol-5-yl)-6-oxo-1,6-dihydropyrimidin-2-yl)-2-(3,5-difluorophenyl)ethyl)-2-((3bS,4aR)-3-(difluoromethyl)-5,5-difluoro-3b,4,4a,5-tetrahydro-1H-cyclopropa[3,4]cyclopenta[1,2-c]pyrazol-1-yl)acetamide] showed a CC50 at 4 days of more than 100 nM. In data set [2], the EC50 worked out at 0.74 nM.
In data set [1], `O=C(Cn1nc(C(F)F)c2c1C(F)(F)[C@@H]1C[C@H]21)N[C@@H](Cc1cc(F)cc(F)c1)c1nc(-c2ncccn2)cc(=O)n1-c1ccc(Cl)c2c(NS(=O)(=O)C3CC3)nn(CC(F)F)c12` (atropisomer, axis not shown; (aR)) [Example 48, N-((S)-1-((1′P)-1′-(4-chloro-3-(cyclopropanesulfonamido)-1-(2,2-difluoroethyl)-1H-indazol-7-yl)-6′-oxo-1′,6′-dihydro-[2,4′-bipyrimidin]-2′-yl)-2-(3,5-difluorophenyl)ethyl)-2-((3bS,4aR)-3-(difluoromethyl)-5,5-difluoro-3b,4,4a,5-tetrahydro-1H-cyclopropa[3,4]cyclopenta[1,2-c]pyrazol-1-yl)acetamide] displayed a CC50 at 4 days of more than 100 nM. In addition, the concentration giving a half-maximal response (EC50) in data set [2] came to 0.18 nM.
`CCOc1ccc(-c2cc(=O)n(-c3ccc(Cl)c4c(NS(C)(=O)=O)nn(C)c34)c([C@H](Cc3cc(F)cc(F)c3)NC(=O)Cn3nc(C(F)F)c4c3C(F)(F)[C@@H]3C[C@H]43)n2)cn1` (atropisomer, axis not shown; (P)) [Example 22, N-((S)-1-((1P)-1-(4-chloro-1-methyl-3-(methylsulfonamido)-1H-indazol-7-yl)-4-(6-ethoxypyridin-3-yl)-6-oxo-1,6-dihydropyrimidin-2-yl)-2-(3,5-difluorophenyl)ethyl)-2-((3bS,4aR)-3-(difluoromethyl)-5,5-difluoro-3b,4,4a,5-tetrahydro-1H-cyclopropa[3,4]cyclopenta[1,2-c]pyrazol-1-yl)acetamide] gave a CC50 at 4 days in data set [1] of more than 100 nM. The EC50 in data set [2] came out at 0.46 nM.
Molecule `Cc1ccnc(-c2cc(=O)n(-c3ccc(Cl)c4c(NS(=O)(=O)C5CC5)nn(CC(F)F)c34)c([C@H](Cc3cc(F)cc(F)c3)NC(=O)Cn3nc(C(F)F)c4c3C(F)(F)[C@@H]3C[C@H]43)n2)n1` (atropisomer, axis not shown; (aR)) [Example 43, N-((S)-1-((1′P)-1′-(4-chloro-3-(cyclopropanesulfonamido)-1-(2,2-difluoroethyl)-1H-indazol-7-yl)-4-methyl-6′-oxo-1′,6′-dihydro-[2,4′-bipyrimidin]-2′-yl)-2-(3,5-difluorophenyl)ethyl)-2-((3bS,4aR)-3-(difluoromethyl)-5,5-difluoro-3b,4,4a,5-tetrahydro-1H-cyclopropa[3,4]cyclopenta[1,2-c]pyrazol-1-yl)acetamide] had a CC50 at 4 days in data set [1] of more than 100 nM. The EC50 in data set [2] was 0.17 nM.
The matching figures for `Cn1nc(NS(C)(=O)=O)c2c(Cl)ccc(-n3c([C@H](Cc4cc(F)cc(F)c4)NC(=O)Cn4nc(C(F)F)c5c4C(F)(F)[C@@H]4C[C@H]54)nc(-c4cccc(F)n4)cc3=O)c21` (atropisomer, axis not shown; (P)) [Example 23, N-((S)-1-((1P)-1-(4-chloro-1-methyl-3-(methylsulfonamido)-1H-indazol-7-yl)-4-(6-fluoropyridin-2-yl)-6-oxo-1,6-dihydropyrimidin-2-yl)-2-(3,5-difluorophenyl)ethyl)-2-((3bS,4aR)-3-(difluoromethyl)-5,5-difluoro-3b,4,4a,5-tetrahydro-1H-cyclopropa[3,4]cyclopenta[1,2-c]pyrazol-1-yl)acetamide]: more than 100 nM and 0.42 nM.
Consider `COC(C)(C)C#Cc1cc(=O)n(-c2ccc(Cl)c3c(NS(=O)(=O)C4CC4)nn(CC(F)F)c23)c([C@H](Cc2cc(F)cc(F)c2)NC(=O)Cn2nc(C(F)(F)F)c3c2C(F)(F)[C@@H]2C[C@H]32)n1` (atropisomer, axis not shown; (P)) [Example 45, N-((S)-1-((1P)-1-(4-chloro-3-(cyclopropanesulfonamido)-1-(2,2-difluoroethyl)-1H-indazol-7-yl)-4-(3-methoxy-3-methylbut-1-yn-1-yl)-6-oxo-1,6-dihydropyrimidin-2-yl)-2-(3,5-difluorophenyl)ethyl)-2-((3bS,4aR)-5,5-difluoro-3-(trifluoromethyl)-3b,4,4a,5-tetrahydro-1H-cyclopropa[3,4]cyclopenta[1,2-c]pyrazol-1-yl)acetamide], for which the CC50 at 4 days in data set [1] was more than 100 nM. Besides, the EC50 in data set [2] is 0.12 nM.
Take `CCOc1ncc(-c2cc(=O)n(-c3ccc(Cl)c4c(NS(C)(=O)=O)nn(C)c34)c([C@H](Cc3cc(F)cc(F)c3)NC(=O)Cn3nc(C(F)F)c4c3C(F)(F)[C@@H]3C[C@H]43)n2)cn1` (atropisomer, axis not shown; (P)) [Example 11, N-((S)-1-((1P)-1-(4-chloro-1-methyl-3-(methylsulfonamido)-1H-indazol-7-yl)-2′-ethoxy-6-oxo-1,6-dihydro-[4,5′-bipyrimidin]-2-yl)-2-(3,5-difluorophenyl)ethyl)-2-((3bS,4aR)-3-(difluoromethyl)-5,5-difluoro-3b,4,4a,5-tetrahydro-1H-cyclopropa[3,4]cyclopenta[1,2-c]pyrazol-1-yl)acetamide]: in data set [1], the CC50 at 4 days is more than 100 nM. The EC50 in data set [2] amounted to 0.81 nM.
On to `CC(F)(F)Cn1ccc(-c2cc(=O)n(-c3ccc(Cl)c4c(NS(=O)(=O)C5CC5)nn(CC(F)F)c34)c([C@H](Cc3cc(F)cc(F)c3)NC(=O)Cn3nc(C(F)F)c4c3C(F)(F)[C@@H]3C[C@H]43)n2)n1` (atropisomer, axis not shown; (P)) [Example 42, N-((S)-1-((1P)-1-(4-chloro-3-(cyclopropanesulfonamido)-1-(2,2-difluoroethyl)-1H-indazol-7-yl)-4-(1-(2,2-difluoropropyl)-1H-pyrazol-3-yl)-6-oxo-1,6-dihydropyrimidin-2-yl)-2-(3,5-difluorophenyl)ethyl)-2-((3bS,4aR)-3-(difluoromethyl)-5,5-difluoro-3b,4,4a,5-tetrahydro-1H-cyclopropa[3,4]cyclopenta[1,2-c]pyrazol-1-yl)acetamide], for which the CC50 at 4 days in data set [1] was more than 100 nM. Besides, the EC50 in data set [2] came out at 0.21 nM.
`O=C(Cn1nc(C(F)F)c2c1C(F)(F)[C@@H]1C[C@H]21)N[C@@H](Cc1cc(F)cc(F)c1)c1nc(-c2cnccn2)cc(=O)n1-c1ccc(Cl)c2c(NS(=O)(=O)C3CC3)nn(CC(F)F)c12` (atropisomer, axis not shown; (P)) [Example 50, N-((S)-1-((1P)-1-(4-chloro-3-(cyclopropanesulfonamido)-1-(2,2-difluoroethyl)-1H-indazol-7-yl)-6-oxo-4-(pyrazin-2-yl)-1,6-dihydropyrimidin-2-yl)-2-(3,5-difluorophenyl)ethyl)-2-((3bS,4aR)-3-(difluoromethyl)-5,5-difluoro-3b,4,4a,5-tetrahydro-1H-cyclopropa[3,4]cyclopenta[1,2-c]pyrazol-1-yl)acetamide] yielded a CC50 at 4 days in data set [1] of more than 100 nM. The EC50 in data set [2] was found to be 0.81 nM.
Take `O=C(Cn1nc(C(F)F)c2c1C(F)(F)[C@@H]1C[C@H]21)N[C@@H](Cc1cc(F)cc(F)c1)c1nc(-c2ncc(F)cn2)cc(=O)n1-c1ccc(Cl)c2c(NS(=O)(=O)C3CC3)nn(CC(F)F)c12` (atropisomer, axis not shown; (aR)) [Example 30, N-((S)-1-((1′P)-1′-(4-chloro-3-(cyclopropanesulfonamido)-1-(2,2-difluoroethyl)-1H-indazol-7-yl)-5-fluoro-6′-oxo-1′,6′-dihydro-[2,4′-bipyrimidin]-2′-yl)-2-(3,5-difluorophenyl)ethyl)-2-((3bS,4aR)-3-(difluoromethyl)-5,5-difluoro-3b,4,4a,5-tetrahydro-1H-cyclopropa[3,4]cyclopenta[1,2-c]pyrazol-1-yl)acetamide]: the CC50 at 4 days in data set [1] is more than 100 nM. Besides, the half-maximal effective concentration (EC50) in data set [2] is 0.2 nM.
The molecule `Cn1nc(NS(C)(=O)=O)c2c(Cl)ccc(-n3c([C@H](Cc4cc(F)cc(F)c4)NC(=O)Cn4nc(C(F)F)c5c4C(F)(F)[C@@H]4C[C@H]54)nc(-c4nccc(C(F)F)n4)cc3=O)c21` (atropisomer, axis not shown; (aR)) [Example 5, N-((S)-1-((1′P)-1′-(4-chloro-1-methyl-3-(methylsulfonamido)-1H-indazol-7-yl)-4-(difluoromethyl)-6′-oxo-1′,6′-dihydro-[2,4′-bipyrimidin]-2′-yl)-2-(3,5-difluorophenyl)ethyl)-2-((3bS,4aR)-3-(difluoromethyl)-5,5-difluoro-3b,4,4a,5-tetrahydro-1H-cyclopropa[3,4]cyclopenta[1,2-c]pyrazol-1-yl)acetamide] registered a CC50 at 4 days in data set [1] of more than 100 nM. Besides, the EC50 in data set [2] came out at 0.054 nM.

Broadly, the CC50 is the concentration giving 50% cytotoxicity. A low value points to harm at low concentration. Usually EC50 stands for the concentration at which the effect is half-maximal.

These data come from patent publication US20220409619A1, “INHIBITORS OF HUMAN IMMUNODEFICIENCY VIRUS REPLICATION” (VIIV HEALTHCARE UK (No. 5) LIMITED, priority 2019, published 2022).
